Measurements reported in patent US20230101403A1, “METHOD OF TREATING OR AMELIORATING CANCERS DRIVEN BY RECEPTOR TYROSINE KINASE FUSION ONCOGENES, AND COMPOSITIONS FOR THE SAME” (THE TRUSTEES OF THE UNIVERSITY OF PENNSYLVANIA, priority 2021, published 2023).

What was measured:
[1] = system: Erk activity, STE-1 cells; assay: live cell imaging of Erk kinase translocation reporter (ErkKTR); format: cell-based; settings: for effect on ErkKTR: Erk activity and reactivation pulses: crizotinib 1 μM, erlotinib 1 μM, marimastat 10 μM
Experimental: (§1) Error bars represent 95% confidence intervals. […] FIG. 4I depicts the comparison of EGR1 expression after 6 hr of inhibitor treatment. […] FIG. 5B is the schematic of spatial analysis of Erk signaling in relation to dying cells. Cells within a 32 μm radius of a dying cell were considered neighbors of the dying cell, whereas all other cells were non-neighbors. Neighbors/non-neighbors were identified and tracked for 50 min before the death event, and Erk actvity in these cells was quantified. FIG. 5C depicts the quantification of Erk activity pulses in neighbors (“N”) or non-neighbors (“R”) of each cell-death event in the indicated conditions.
To further understand Erk reactivation, the present study observed Erk activity using live cell imaging of the Erk kinase translocation reporter (ErkKTR) in STE-1 cells (FIG. 4A). ErkKTR is a fluorescence reporter whose localization corresponds with Erk activity: the nuclear localization of ErkKTR indicates low activity of Erk while the cytoplasmic localization indicates high activity of Erk.

STE-1 cells [2] = assay: caspase-3 activity reporter (Nucview) in STE-1; format: cell-based; settings: for killing over untreated cells, single agent: 24 hr
Experimental: (§2) FIG. 6C depicts the quantification of death in STE-1 cells following 24 hrs of inhibitor treatment. FIG. 6D depicts the number of Erk pulses in cells that died (“D”) and cells that lived (“L”) during 24 hrs of inhibitor treatment. FIG. 6E depicts the percentage of caspase-3+ STE-1 and H3122 cells following 24 hrs of inhibitor treatment.
Percent of Caspase-3 positive cells assessed using NucView 488 afterfive days of treatment with the indicated inhibitors: Alecitinib 1 μM, Erlotinib 1 μM, Marimastat 10 μM.

H3122 cells = assay: caspase-3 activity reporter (Nucview) in H3122; format: cell-based; settings: for killing over untreated cells, single agent: 24 hr
Source text: as §2

[3] = system: ppErk, STE-1 cells expressing optoFGFR; assay: functional profiling: optoFGFR blue light stimulation, single-cell ppErk immunofluorescence; format: cell-based; settings: STE-1 optoFGFR
Source text: FIG. 1A illustrates that EML4-ALK+ cancer cells treated with ALK specific tyrosine kinase inhibitor (TKI) often result in a population of persistent/tolerant cells that later develop into resistant colonies. […] FIG. 1C, left panel, illustrates that transmembrane RTK and EML4-ALK protein granules both signal through the same adapter proteins and downstream pathways like Ras/Erk. FIG. 1C, right panel, illustrates the functional profiling method used in determining the extent to which EML4-ALK expression or its inhibition alter signal transmission in cancer cells. FIG. 1D illustrates that optoFGFR allows for blue light stimulation of RTK (optoFGFR) signal transduction. […] FIG. 1F depicts the normalized ppErk fold-change in response to 5 min of blue light stimulation. Blue light intensity ranged from 2% to 60% of maximum (1.45 W/cm^2). Datapoints show mean single-cell ppErk intensity from three replicates.
A method called functional profiling that allows the measurement of how oncogenes and targeted therapies can alter signal transmission was developed. In functional profiling, light-activated ‘optogenetic’ signaling stimuli are apply at specific nodes of a signaling pathway and downstream signals, transcription, and cell fate as a function of oncogene or drug status are observe.
To determine whether EML4-ALK could alter RTK signal transmission properties, a light-sensitive fibroblast growth factor receptor (optoFGFR) was expressed in the STE-1 cancer cell line, which is driven by the EML4-ALK(V1) oncogene. The present study observed signal transmission by applying blue light stimuli and measuring single-cell phospho-Erk levels single-cell immunofluorescence (FIG. 1D). In STE-1 cells, optoFGFR induced only mild double-phosphorylated Erk (ppErk) signal increase above the high basal ppErk levels attributed to active EML4-ALK (FIG. 1E, top). […] Signal dynamic range increased due to lowering of tonic Erk activity from ALK, as well as from an increase in the maximum signal achievable relative to untreated cells. […]

ppErk, H3122 cells = assay: EGF-induced ppErk induction in H3122 cells; format: cell-based; settings: 100 ng/mL EGF, pre-treatment 1 μM
Source text: Data points represent mean single cell ppErk intensity of three replicates.
(§3) To determine whether such negative regulation could be observed in the context of native epidermal growth factor receptor (EGFR) signaling, the present study measured ppErk induction upon addition of epidermal growth factor (EGF) in STE-1 and H3122 cells, two NSCLC cell lines driven by EML4-ALK(V1) (FIG. 2A).
(§4) To determine whether the mechanism was predominantly transcriptional or post-translational, the required duration of ALKi pre-incubation to observe an increase in dynamic range was examined. both STE-1 and H3122 cells were preincubated with varying durations of ALK inhibition, and ppErk levels in response to 15 min of EGF stimulation was analyzed.

[4] = system: ppErk, STE-1 and H3122 cancer cells; assay: single-cell ppErk levels as a function of treatment duration; format: cell-based; settings: serum-starved
Source text: The present study sought to understand whether relief of EGFR inhibition by EML4-ALK might lead to Erk reactivation in STE-1 and H3122 cancer cells. […] The present study thus further examined Erk reactivation under ALK inhibition combined with marimastat, an inhibitor for matrix metalloproteases that are required for shedding EGF family ligands prior to paracrine signaling.

EGR1, STE-1 cells = assay: EGR1 expression in individual cells after drug treatment; format: cell-based
Experimental: as §1

[5] = system: Erk activity, STE-1 cells
Experimental: as §1
The present study next sought to determine the source of the paracrine signals. […] Signal activation near dying cells was quantified by first identifying the time and location of each cell death event. All cells that were within a 100-pixel radius (˜32 μm, or about a 2-cell radius) of the dying cell for the 50 minutes preceding death were then identified. The present study refers to these as the “neighbors” of the dying cell (FIG. 5B). The present study then counted Erk pulses in the neighbors of a death event and compared to Erk pulses from a randomly selected subset of non-neighbors over that same time interval.

STE-1 cells [6] = assay: cell death in cells imaged over 24 hrs; format: cell-based
ppErk, STE-1 cells = assay: EGF-induced ppErk induction in STE-1 cells; settings: 100 ng/mL EGF, pre-treatment 1 μM
Experimental: Data points represent mean single cell ppErk intensity of three replicates. FIG. 2C depicts the quantification of dynamic range of ppErk induction from experiment in 2C performed over a range of EGF concentrations. […] FIG. 2E depicts the ppErk immunofluoresence intensity response to 50 ng/mL EGF stimulation.
as §3, §4

C#Cc1cccc(Nc2ncnc3cc(OCCOC)c(OCCOC)cc23)c1 [erlotinib]
effect on ErkKTR: Erk activity and reactivation pulses [1]: no obvious effect on ErkKTR | killing over untreated cells, single agent (STE-1 cells [2]): Neither erlotinib or marimastat treatment alone showed enhanced killing over untreated cells | killing over untreated cells, single agent (H3122 cells): Neither erlotinib or marimastat treatment alone showed enhanced killing over untreated cells

CNC(=O)[C@@H](NC(=O)[C@H](CC(C)C)[C@H](O)C(=O)NO)C(C)(C)C [marimastat]
effect on ErkKTR: Erk activity and reactivation pulses [1]: no obvious effect on ErkKTR | killing over untreated cells, single agent (STE-1 cells [2]): Neither erlotinib or marimastat treatment alone showed enhanced killing over untreated cells | killing over untreated cells, single agent (H3122 cells): Neither erlotinib or marimastat treatment alone showed enhanced killing over untreated cells

C[C@@H](Oc1cc(-c2cnn(C3CCNCC3)c2)cnc1N)c1c(Cl)ccc(F)c1Cl [crizotinib]
dynamic range of signal induction (ppErk) ([3]; blue light, pre-treatment 1 μM): ~18 fold | light stimulation at which increase of dynamic range could be observed ([3]; 1 μM): ≤ 5 % maximal light stimulation | dynamic range plateau (induction) at the highest light levels ([3]; 1 μM, highest levels of light stimulation): ~25 fold | ppErk dynamic range in response to EGF (ppErk, H3122 cells): dramatic increase in ppErk dynamic range | time to reappearance of ERK-hi cells [4]: ≤ 1 h | time within which mean Erk levels decreased dramatically [4]: ≤ 10 min | ErkKTR localization upon treatment ([1]; 1 μM): induced rapid nuclear translocation of ErkKTR in all cells | time EGR1 levels remained low (EGR1, STE-1 cells): at least 2 hrs | EGR1 expression (EGR1-high population) (EGR1, STE-1 cells; crizotinib 1 μM, erlotinib 1 μM): a distinct peak of EGR1-high cells appeared and grew at 4 and 6 hrs after drug treatment | median Erk pulses per cell, neighbors of a death ([5]; 50 minutes preceding death, within ~32 μm): 0.23 pulses per cell | proportion of neighbor cells with at least 1 pulse preceding a death event ([5]; neighbors): 60% | proportion of non-neighbor cells with at least 1 pulse preceding a death event ([5]; non-neighbors): 20% | Erk pulses in surviving cells compared to cells that died (STE-1 cells [6]; 24 hrs): surviving cells showed an increased number of Erk pulses compared to cells that died | cell death, % of cells analyzed (STE-1 cells [6]; imaged over 24 hrs): ~40% | caspase-3-positive cell fraction (STE-1 cells [2]; first 24 hr of treatment): 25% | caspase-3-positive cell fraction (H3122 cells; first 24 hr of treatment): 5% | ppErk dynamic range in response to EGF (ppErk, STE-1 cells): dramatic increase in ppErk dynamic range
